Laboratory results reported in ChEMBL document CHEMBL1121976, “Structure-activity relationships for hallucinogenic N,N-dialkyltryptamines: photoelectron spectra and serotonin receptor affinities of methylthio and methylenedioxy derivatives” (J Med Chem, 1982).

Species: Rattus norvegicus
Experiment: The ability to inhibit the 5-HT-induced contraction of isolated rat fundus muscle was determined
Assay type: functional
Conditions: read-out: pA2 (converted)

Going from `CN(C)CCc1c[nH]c2ccccc12` [N,N-DIMETHYLTRYPTAMINE] to `COc1ccc2[nH]cc(CCN(C)C)c2c1` [MEBUFOTENIN], the Kb falls from 1000 nM to 83.2 nM (12-fold).

Going from `CSc1ccc2[nH]cc(CCN(C)C)c2c1` to `CSc1ccc2c(CCN(C)C)c[nH]c2c1`, the Kb rises from 145 nM to 1200 nM (8.3-fold).

Compared with `CN(C)CCc1c[nH]c2cc3c(cc12)OCO3`, `CN(C)CCc1c[nH]c2ccc3c(c12)OCO3` is 2.6-fold lower in Kb: 1020 nM for the first, 398 nM for the second.

`CSc1cccc2[nH]cc(CCN(C)C)c12` and `COc1cccc2[nH]cc(CCN(C)C)c12` are within 1.5-fold of each other in Kb: 617 nM for the first, 676 nM for the second.

With `COc1ccc2c(CCN(C)C)c[nH]c2c1` the Kb was 1700 nM.
